Data published in paper PMC12441861, “Next-Generation Lipid Prodrugs Orally Deliver Tenofovir via Enhanced Chylomicron Incorporation” (ACS Pharmacology & Translational Science, 2025).
Read-outs that look alike come from different tables or passages of the source.

Experiments:
[1] = Metabolic stability in human liver microsomes; type: in vitro ADME; settings: pH 7.4, read-out: Metabolic Stability HLM t1/2
Protocol: Assays employed human liver microsomes (HLMs, 20 mg/mL) from Xenotech. A 10 mM NADPH stock was prepared in deionized H2O, and test compounds were dissolved in 100% MeOH to a final concentration of 10 mM. The stock solutions were diluted to 500 μM in 100 mM potassium phosphate buffer (pH 7.4), keeping the final MeOH concentration below 0.2%. Reaction mixtures were prepared by combining 928 μL phosphate buffer, 55 μL liver microsomes, and the test compound solution to a final concentration of 3 μM. Verapamil was used as a positive control. The reactions were initiated with the addition of 110 μL of 10 mM NADPH. Aliquots were taken in duplicate at 0, 5, 10, 15, and 30 min, quenched with 100 μL of cold MeOH containing 2 μM internal standard (d 5-7-ethoxy coumarin), and centrifuged at 12,000 RCF for 5 min. The supernatants were then transferred to LC-MS vials for analysis. The average of each duplicate was normalized to the 0 min time point, representing 100% remaining (0% metabolism).

[2] = Metabolic stability in mouse liver microsomes; type: in vitro ADME; settings: pH 7.4, read-out: Metabolic Stability MLM t1/2
[3] = Mouse oral PK and tissue distribution, fed state; type: in vivo; settings: for Tmax / AUC(0-t) / Cmax: male, C57BL/6, mouse; for AUC(0-t): read-out: Plasma AUC0-18h; for improvement in lung AUC over TXL / improvement in lung AUC over non-BOG counterpart (21a vs 15a, 21b vs 15b) / increase in plasma AUC relative to TXL / increase in plasma AUC relative to non-BOG counterpart (21a vs 15a, 21b vs 15b) / increase in plasma Cmax relative to TXL / increase in plasma Cmax relative to non-BOG counterpart (21a vs 15a, 21b vs 15b): 10 mg/kg oral
Source text: Given the increased packaging of the CF3-modified lipids into CMs compared to their ω-unmodified congeners, we selected these compounds for PK studies in mice. We hypothesized that, following oral administration, our modified prodrugs would favor CM-mediated transport into the lymphatics over absorption into mesenteric veins feeding into the portal system. By circumventing direct transport to the liver, these prodrugs are expected to achieve elevated levels in the lung relative to the liver, as lymph empties into the jugular venous angle and mixes with blood en route to the pulmonary arteries (Figure ). For all mouse PK experiments, prodrugs were formulated in a 9:1 mixture of olive oil and ethanol, then administered to male C57BL/6 mice via oral gavage at a dose of 10 mg/kg. Organs (liver, lung, and plasma) were harvested at 1, 2, 4, 8, and 18 h postdose, per the protocol described by our groups previously. Concentrations of prodrug were quantified using LC-MS/MS after tissue homogenization, extraction, and sample preparation.
The compounds TXL, 15a, 15b, 21a, 21b, and a vehicle control were prepared at a concentration of 1 mg/mL in a 90:10 solution of olive oil (Sigma-Aldrich, cat. No. O1514) and 190-proof ethanol. The dosing for each mouse was calculated based on individual body weights to achieve a final dose of 10 mg/kg. For example, a 20 g mouse would receive 200 μL of the 1 mg/mL drug formulation, while a 25 g mouse would receive 250 μL.
In accordance with the American Chemical Society Guidelines to Publication of Chemical Research, we affirm the use of standard ethical practices when housing and handling research animals, as ensured by the Emory University’s Institutional Animal Care and Use Committee (IACUC) and the Division of Animal Resources (DAR) through a rigorous protocol review, amendment, and approval process. A total of 220 C57BL6/J male mice (aged 11–12 weeks, weight, 22–30 g) were used for these studies. Each mouse was weighed, recorded, and ear-clipped for identification. The dosing for each mouse was calculated based on individual body weights to achieve a final dose of 10 mg/kg. Animals were anesthetized using isoflurane gas before receiving a single dose of drug prepared as described above using a 22-gauge gavage needle attached to a calibrated syringe.
Time points for tissue collection were 1, 2, 4, 8, and 18 h for unfasted mice, and 1, 2, 4, 8, and 24 h for fasted mice. At each time point, the mice (n = 4 per compound per time point) were anesthetized using isoflurane and subjected to cardiac puncture for blood collection into EDTA-coated tubes. The collected blood samples were immediately placed on ice before the mice were humanely euthanized via cervical dislocation. Brain, liver, lungs, and kidneys were harvested, rinsed in PBS, and placed in prelabeled tubes. Tissues were flash-frozen in liquid nitrogen then transferred to dry ice for storage.
Blood samples were collected into EDTA-coated tubes and centrifuged at 400 RCF for 10 min at 4 °C to separate plasma from the cellular components. The plasma layer was carefully pipetted off and stored in separate prelabeled and preweighed tubes. All tissues were stored at −80 °C until time for processing.
Tissues were weighed (∼50 mg) into homogenization tubes and ACN containing a 10 μM ITSD was added to achieve a final solvent-to-tissue ratio of 4:1. Homogenization beads were added, and the tissues were processed (Biotage Lysera, part no. 19–060) using two 20 s pulses with a 10 s interval period. Homogenate was centrifuged at maximum speed for 1 h, supernatant collected and analyzed via LC-MS using the method described previously. For plasma samples, a 50 μL aliquot was added 200 μL of ACN containing ITSD. The mixture was vortexed thoroughly and then centrifuged to precipitate proteins, with the supernatant collected and analyzed via LC-MS. […]

[4] = in vivo, po, 10 mg/kg, single oral dose 10 mg/kg, fed mice, read-out: Liver Tmax
[5] = in vivo, po, 10 mg/kg, single oral dose 10 mg/kg, fed mice, read-out: Lung Tmax
[6] = in vivo, po, 10 mg/kg, single oral dose 10 mg/kg, fed mice, read-out: Plasma Tmax
[7] = in vivo, single oral dose 10 mg/kg, fed mice
[8] = in vivo, single oral dose 10 mg/kg, fed mice, read-out: Plasma Cmax
[9] = single oral dose 10 mg/kg, fed mice
[10] = liver, single oral dose 10 mg/kg, fed mice, read-out: Liver Tmax
[11] = plasma, single oral dose 10 mg/kg, fed mice
[12] = plasma, single oral dose 10 mg/kg, fed mice, read-out: Plasma Tmax

| half-life at 3 µM [1] [min] | improvement in lung AUC over TXL ([3]; fed mice) [fold] | improvement in lung AUC over non-BOG counterpart (21a vs 15a, 21b vs 15b) ([3]; fed mice) [fold] | increase in plasma AUC relative to TXL ([3]; fed mice) [fold] | increase in plasma AUC relative to non-BOG counterpart (21a vs 15a, 21b vs 15b) ([3]; fed mice) [fold] | increase in plasma Cmax relative to TXL ([3]; fed mice) [fold] | increase in plasma Cmax relative to non-BOG counterpart (21a vs 15a, 21b vs 15b) ([3]; fed mice) [fold] | Tmax [3, 10] [h] | Cmax [3, 11] [ng/mL] | AUC(0-t) [3, 11] [ng·h/mL] | Tmax [3, 12] [h] | Structure (SMILES) | half-life at 3 µM [2] [min] | Tmax [3, 4] [h] | Tmax [3, 5] [h] | Tmax [3, 6] [h] | AUC(0-t) [3, 7] [ng·h/mL] | Cmax [3, 8] [ng/mL] | Liver AUC0-18h [3, 9] | Liver Cmax [3, 9] | Lung Cmax [3, 9] | other results |
| --- | --- | --- | --- | --- | --- | --- | --- | --- | --- | --- | --- | --- | --- | --- | --- | --- | --- | --- | --- | --- | --- |
| > 120 | 10 | 9 | 16 | 7 | 32 | 7 | 4 | 915 | 4710 | 1 | C[C@H](Cn1cnc2c(N)ncnc21)OCP(=O)(O)OC[C@H](COCCCCCCCCCCCCCCCC(F)(F)F)OCc1ccccc1 [21a, Ammonium[(1R)-2-(6-Aminopurin-9-yl)-1-methyl-ethoxy]methyl-[(2S)-2-benzyloxy-3-(16,16,16-trifluorohexadecoxy)propoxy]phosphinate] | > 120 |  |  |  |  |  | 564,000 h*ng/g | 37,600 ng/g | 7,330 ng/g | Tmax ([3]; lung, po, 10 mg/kg, tissue not stated, read-out: Tmax (fed)): 8 h; Lung AUC0-18h [3, 9]: 72,300 h*ng/g |
| > 120 | 4 | 4 | 15 | 5 | 28 | 8 | 4 | 802 | 4530 | 2 | C[C@H](Cn1cnc2c(N)ncnc21)OCP(=O)(O)OC[C@H](COCCCCCCCCCCCCCCCCCC(F)(F)F)OCc1ccccc1 [21b, Ammonium[(1R)-2-(6-aminopurin-9-yl)-1-methyl-ethoxy]methyl-[(2S)-2-benzyloxy-3-(18,18,18-trifluorooctadecoxy)propoxy]phosphinate] | > 120 |  |  |  |  |  | 218,000 h*ng/g | 22,000 ng/g | 3,000 ng/g | Tmax ([3]; lung, single oral dose 10 mg/kg, fed mice, read-out: Lung Tmax): 8 h; Lung AUC0-18h [3, 9]: 31,100 h*ng/g |
|  |  |  |  |  |  |  |  |  |  |  | CCCCCCCCCCCCCCCCOCCCOP(=O)(O)CO[C@H](C)Cn1cnc2c(N)ncnc21 [TXL, hexadecyloxypropyl (HDP)-TFV, reference compound] | > 120 | 2 | 8 | 8 | 298 | 29.1 | 25,600 h*ng/g | 2,660 ng/g | 583 ng/g | Tmax ([3]; in vivo, po, 10 mg/kg, tissue not stated, read-out: Tmax (fed)): 8 h |

| Structure (SMILES) | half-life at 3 µM [1] [min] | improvement in lung AUC over TXL ([3]; fed mice) [fold] | improvement in lung AUC over non-BOG counterpart (21a vs 15a, 21b vs 15b) ([3]; fed mice) [fold] | increase in plasma AUC relative to TXL ([3]; fed mice) [fold] | increase in plasma AUC relative to non-BOG counterpart (21a vs 15a, 21b vs 15b) ([3]; fed mice) [fold] | increase in plasma Cmax relative to TXL ([3]; fed mice) [fold] | increase in plasma Cmax relative to non-BOG counterpart (21a vs 15a, 21b vs 15b) ([3]; fed mice) [fold] | Tmax [3, 10] [h] | Cmax [3, 11] [ng/mL] | AUC(0-t) [3, 11] [ng·h/mL] | Tmax [3, 12] [h] | half-life at 3 µM [2] [min] | Tmax [3, 4] [h] | Tmax [3, 5] [h] | Tmax [3, 6] [h] | AUC(0-t) [3, 7] [ng·h/mL] | Cmax [3, 8] [ng/mL] | Liver AUC0-18h [3, 9] | Liver Cmax [3, 9] | Lung Cmax [3, 9] | other results |
| --- | --- | --- | --- | --- | --- | --- | --- | --- | --- | --- | --- | --- | --- | --- | --- | --- | --- | --- | --- | --- | --- |
| C[C@H](Cn1cnc2c(N)ncnc21)OCP(=O)(O)OCCCOCCCCCCCCCCCCCCCC(F)(F)F [15a, Ammonium[(1R)-2-(6-aminopurin-9-yl)-1-methyl-ethoxy]methyl-[3-(16,16,16-trifluorohexadecoxy)propoxy]phosphinate] | > 120 |  |  |  |  |  |  |  |  |  |  | > 120 | 2 | 8 | 2 | 706 | 127 | 190,000 h*ng/g | 27,000 ng/g | 729 ng/g |  |
